Biological target: human SPR (Homo sapiens (Human), UniProt P35270)
Experiment: Evaluation Example 2: Measurement of human SPR inhibitory activity (seven concentrations, sepiapterin absorbance at 420 nm)
Assay type: biochemical
Details: sepiapterin absorbance, Table 41, read-out: concentration at 50% inhibition of human SPR (IC50)
Procedure, shortened: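 Reactions ran 240 min at room temperature in 100 mM Tris-HCl pH 7.5 with 0.01% BSA. They contained tag-cleaved, E. coli-expressed full-length human SPR (diluted to 150 ng/mL), seven compound concentrations from 0.14 to 100 nM, and sepiapterin/NADPH added as a 120 μM/160 μM solution. Inhibition was calculated from sepiapterin absorbance at 420 nm.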

Chain of human SPR (P35270 whole entry): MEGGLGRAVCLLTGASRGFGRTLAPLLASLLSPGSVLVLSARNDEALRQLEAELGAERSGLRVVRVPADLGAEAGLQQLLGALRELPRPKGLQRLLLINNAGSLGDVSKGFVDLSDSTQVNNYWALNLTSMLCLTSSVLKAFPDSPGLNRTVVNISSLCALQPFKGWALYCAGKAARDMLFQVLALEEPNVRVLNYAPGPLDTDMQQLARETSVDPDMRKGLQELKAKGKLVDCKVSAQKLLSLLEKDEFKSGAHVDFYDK

| Structure (SMILES) | IC50 |
| --- | --- |
| CC(C)Cn1c(=O)c(C(=O)NC2CC2)c(O)n2ncc(/C=C/C(=O)N3C[C@H](C)OC[C@@H]3C)c12 [Synthesis Example 717, N-Cyclopropyl-3-((E)-3-((2S,5S)-2,5-dimethylmorpholino)-3-oxoprop-1-en-1-yl)-7-hydroxy-4-isobutyl-5-oxo-4,5-dihydropyrazolo[1,5-a]pyrimidine-6-carboxamide] | 0.78 nM |
| CC(C)Cn1c(=O)c(C(=O)NC2CC2)c(O)n2ncc(/C=C/C(=O)N3C[C@H](C)OC[C@H]3C)c12 [Synthesis Example 718, N-Cyclopropyl-3-((E)-3-((2S,5R)-2,5-dimethylmorpholino)-3-oxoprop-1-en-1-yl)-7-hydroxy-4-isobutyl-5-oxo-4,5-dihydropyrazolo[1,5-a]pyrimidine-6-carboxamide] | 0.74 nM |
| CC(C)Cn1c(=O)c(C(=O)NC2CC2)c(O)n2ncc(/C=C/C(=O)N3C4CCC3CC(F)(F)C4)c12 [Synthesis Example 719, (E)-N-Cyclopropyl-3-(3-(3,3-difluoro-8-azabicyclo[3.2.1]octan-8-yl)-3-oxoprop-1-en-1-yl)-7-hydroxy-4-isobutyl-5-oxo-4,5-dihydropyrazolo[1,5-a]pyrimidine-6-carboxamide] | 0.77 nM |
| CC(C)Cn1c(=O)c(C(=O)NC2CC2)c(O)n2ncc(/C=C/C(=O)N3CC4CCC(C3)C4(F)F)c12 [Synthesis Example 720, (E)-N-Cyclopropyl-3-(3-(8,8-difluoro-3-azabicyclo[3.2.1]octan-3-yl)-3-oxoprop-1-en-1-yl)-7-hydroxy-4-isobutyl-5-oxo-4,5-dihydropyrazolo[1,5-a]pyrimidine-6-carboxamide] | 1.03 nM |
| CC(C)Cn1c(=O)c(C(=O)NC2CC2)c(O)n2ncc(/C=C/C(=O)N3CCCC34CC4)c12 [Synthesis Example 721, (E)-N-Cyclopropyl-7-hydroxy-4-isobutyl-5-oxo-3-(3-oxo-3-(4-azaspiro[2.4]heptan-4-yl)prop-1-en-1-yl)-4,5-dihydropyrazolo[1,5-a]pyrimidine-6-carboxamide] | 1.05 nM |
| CC(C)Cn1c(=O)c(C(=O)NC2CC2)c(O)n2ncc(/C=C/C(=O)N3C[C@@H](F)[C@@H](F)C3)c12 [Synthesis Example 722, N-Cyclopropyl-3-((E)-3-(cis-3,4-difluoropyrrolidin-1-yl)-3-oxoprop-1-en-1-yl)-7-hydroxy-4-isobutyl-5-oxo-4,5-dihydropyrazolo[1,5-a]pyrimidine-6-carboxamide] | 0.81 nM |
| CC(C)Cn1c(=O)c(C(=O)NC2CC2)c(O)n2ncc(/C=C/C(=O)N3CCc4cncnc43)c12 [Synthesis Example 724, (E)-N-Cyclopropyl-3-(3-(5,6-dihydro-7H-pyrrolo[2,3-d]pyrimidin-7-yl)-3-oxoprop-1-en-1-yl)-7-hydroxy-4-isobutyl-5-oxo-4,5-dihydropyrazolo[1,5-a]pyrimidine-6-carboxamide] | 1.03 nM |
| CC(C)Cn1c(=O)c(C(=O)NC2CC2)c(O)n2ncc(/C=C/C(=O)N3CCc4ccccc43)c12 [Synthesis Example 725, (E)-N-Cyclopropyl-7-hydroxy-3-(3-(indolin-1-yl)-3-oxoprop-1-en-1-yl)-4-isobutyl-5-oxo-4,5-dihydropyrazolo[1,5-a]pyrimidine-6-carboxamide] | 3.61 nM |
| CC(C)Cn1c(=O)c(C(=O)NC2CC2)c(O)n2ncc(/C=C/C(=O)N3CCN(C4CC(F)(F)C4)C[C@@H]3C)c12 [Synthesis Example 726, (S,E)-N-Cyclopropyl-3-(3-(4-(3,3-difluorocyclobutyl)-2-methylpiperazin-1-yl)-3-oxoprop-1-en-1-yl)-7-hydroxy-4-isobutyl-5-oxo-4,5-dihydropyrazolo[1,5-a]pyrimidine-6-carboxamide] | 1.35 nM |
| CC(C)Cn1c(=O)c(C(=O)NC2CC2)c(O)n2ncc(/C=C/C(=O)N3CCC[C@H]3c3ccccc3)c12 [Synthesis Example 727, (S,E)-N-Cyclopropyl-7-hydroxy-4-isobutyl-5-oxo-3-(3-oxo-3-(2-phenylpyrrolidin-1-yl)prop-1-en-1-yl)-4,5-dihydropyrazolo[1,5-a]pyrimidine-6-carboxamide] | 1.34 nM |
| CC(C)Cn1c(=O)c(C(=O)NC2CC2)c(O)n2ncc(/C=C/C(=O)N3CCOc4cnccc43)c12 [Synthesis Example 728, (E)-N-Cyclopropyl-3-(3-(2,3-dihydro-1H-pyrido[3,4-b][1,4]oxazin-1-yl)-3-oxoprop-1-en-1-yl)-7-hydroxy-4-isobutyl-5-oxo-4,5-dihydropyrazolo[1,5-a]pyrimidine-6-carboxamide] | 1.07 nM |
| CC(C)Cn1c(=O)c(C(=O)NC2CC2)c(O)n2ncc(/C=C/C(=O)N3CCOc4ncccc43)c12 [Synthesis Example 729, (E)-N-Cyclopropyl-3-(3-(2,3-dihydro-1H-pyrido[2,3-b][1,4]oxazin-1-yl)-3-oxoprop-1-en-1-yl)-7-hydroxy-4-isobutyl-5-oxo-4,5-dihydropyrazolo[1,5-a]pyrimidine-6-carboxamide] | 1.05 nM |
| CC(C)Cn1c(=O)c(C(=O)NC2CC2)c(O)n2ncc(/C=C/C(=O)N3CCC[C@H]3C(C)(C)O)c12 [Synthesis Example 730, (S,E)-N-Cyclopropyl-7-hydroxy-3-(3-(2-(2-hydroxypropan-2-yl)pyrrolidin-1-yl)-3-oxoprop-1-en-1-yl)-4-isobutyl-5-oxo-4,5-dihydropyrazolo[1,5-a]pyrimidine-6-carboxamide] | 1.26 nM |
| CC(C)Cn1c(=O)c(C(=O)NC2CC2)c(O)n2ncc(/C=C/C(=O)N3CCc4cc(F)ccc43)c12 [Synthesis Example 731, (E)-N-Cyclopropyl-3-(3-(5-fluoroindolin-1-yl)-3-oxoprop-1-en-1-yl)-7-hydroxy-4-isobutyl-5-oxo-4,5-dihydropyrazolo[1,5-a]pyrimidine-6-carboxamide] | 2.89 nM |
| CC(C)Cn1c(=O)c(C(=O)NC2CC2)c(O)n2ncc(/C=C/C(=O)N3CCc4cc(C#N)ccc43)c12 [Synthesis Example 732, (E)-3-(3-(5-Cyanoindolin-1-yl)-3-oxoprop-1-en-1-yl)-N-cyclopropyl-7-hydroxy-4-isobutyl-5-oxo-4,5-dihydropyrazolo[1,5-a]pyrimidine-6-carboxamide] | 1.7 nM |
| CC(C)Cn1c(=O)c(C(=O)NC2CC2)c(O)n2ncc(/C=C/C(=O)N3CCCC34CCN(C(=O)OC(C)(C)C)CC4)c12 [Synthesis Example 733, Tert-butyl (E)-1-(3-(6-(cyclopropylcarbamoyl)-7-hydroxy-4-isobutyl-5-oxo-4,5-dihydropyrazolo[1,5-a]pyrimidin-3-yl)acryloyl)-1,8-diazaspiro[4.5]decane-8-carboxylate] | 2.16 nM |
| CC(C)Cn1c(=O)c(C(=O)NC2CC2)c(O)n2ncc(/C=C/C(=O)N3CC(C#N)C3)c12 [Synthesis Example 734, (E)-3-(3-(3-Cyanoazetidin-1-yl)-3-oxoprop-1-en-1-yl)-N-cyclopropyl-7-hydroxy-4-isobutyl-5-oxo-4,5-dihydropyrazolo[1,5-a]pyrimidine-6-carboxamide] | 0.73 nM |
| CC(C)Cn1c(=O)c(C(=O)NC2CC2)c(O)n2ncc(/C=C/C(=O)N3CCc4cc(Br)ccc43)c12 [Synthesis Example 735, (E)-3-(3-(5-Bromoindolin-1-yl)-3-oxoprop-1-en-1-yl)-N-cyclopropyl-7-hydroxy-4-isobutyl-5-oxo-4,5-dihydropyrazolo[1,5-a]pyrimidine-6-carboxamide] | 7.3 nM |
| CC(C)Cn1c(=O)c(C(=O)NC2CC2)c(O)n2ncc(/C=C/C(=O)N3CCCC34CCN(C)CC4)c12 [Synthesis Example 736, (E)-N-Cyclopropyl-7-hydroxy-4-isobutyl-3-(3-(8-methyl-1,8-diazaspiro[4.5]decan-1-yl)-3-oxoprop-1-en-1-yl)-5-oxo-4,5-dihydropyrazolo[1,5-a]pyrimidine-6-carboxamide] | 1.07 nM |
| CC(=O)N1CCC2(CCCN2C(=O)/C=C/c2cnn3c(O)c(C(=O)NC4CC4)c(=O)n(CC(C)C)c23)CC1 [Synthesis Example 737, (E)-3-(3-(8-Acetyl-1,8-diazaspiro[4.5]decan-1-yl)-3-oxoprop-1-en-1-yl)-N-cyclopropyl-7-hydroxy-4-isobutyl-5-oxo-4,5-dihydropyrazolo[1,5-a]pyrimidine-6-carboxamide] | 1.9 nM |
| CC(C)Cn1c(=O)c(C(=O)NC2CC2)c(O)n2ncc(/C=C/C(=O)N3CCOc4ccncc43)c12 [Synthesis Example 738, (E)-N-Cyclopropyl-3-(3-(2,3-dihydro-4H-pyrido[4,3-b][1,4]oxazin-4-yl)-3-oxoprop-1-en-1-yl)-7-hydroxy-4-isobutyl-5-oxo-4,5-dihydropyrazolo[1,5-a]pyrimidine-6-carboxamide] | 1.39 nM |
| CC(C)Cn1c(=O)c(C(=O)NC2CC2)c(O)n2ncc(/C=C/C(=O)N3CCOc4ccccc43)c12 [Synthesis Example 739, (E)-N-Cyclopropyl-3-(3-(2,3-dihydro-4H-benz[b][1,4]oxazin-4-yl)-3-oxoprop-1-en-1-yl)-7-hydroxy-4-isobutyl-5-oxo-4,5-dihydropyrazolo[1,5-a]pyrimidine-6-carboxamide] | 1.54 nM |
| CC(C)Cn1c(=O)c(C(=O)NC2CC2)c(O)n2ncc(/C=C/C(=O)N3CCc4cnccc43)c12 [Synthesis Example 740, (E)-N-Cyclopropyl-3-(3-(2,3-dihydro-1H-pyrrolo[3,2-c]pyridin-1-yl)-3-oxoprop-1-en-1-yl)-7-hydroxy-4-isobutyl-5-oxo-4,5-dihydropyrazolo[1,5-a]pyrimidine-6-carboxamide] | 1.81 nM |
| CC(C)Cn1c(=O)c(C(=O)NC2CC2)c(O)n2ncc(/C=C/C(=O)N3C[C@@H](C)OC[C@@H]3C)c12 [Synthesis Example 741, N-Cyclopropyl-3-((E)-3-((2R,5S)-2,5-dimethylmorpholino)-3-oxoprop-1-en-1-yl)-7-hydroxy-4-isobutyl-5-oxo-4,5-dihydropyrazolo[1,5-a]pyrimidine-6-carboxamide] | 0.98 nM |

— US20240092784A1, “CONDENSED HETEROCYCLIC COMPOUND” (NISSAN CHEMICAL CORPORATION, priority 2020, published 2024)
